The values below come from patent US11648290B2, “Cartilage-homing peptides” (FRED HUTCHINSON CANCER CENTER, priority 2015, dated 2023).

The test system of data set [1] is cartilage (IVD, knee / synovial joints). The data set can be described thus: Whole body autoradiography (WBA) of radiolabeled cartilage homing peptides (Example 21). The class given is in vivo, Female Harlan athymic nude mice. On the procedure:
This example illustrates peptide homing to cartilage mice 5 minutes to 48 hours after administration of a radiolabeled peptide. Signal from the radiolabeled peptides was found in all types of cartilage at each time point examined. Each peptide was radiolabeled by methylating […] as described in EXAMPLE 2. As such, the peptide may contain methyl or dimethyl lysines and a methylated or dimethylated amino terminus. A dose of 100 nmol radiolabeled peptide was administered via tail vein injection in Female Harlan athymic nude mice, weighing 20-25 g. The experiment was done in duplicate (n=2 animals per group). In some animals, kidneys were ligated to prevent renal filtration of the radiolabeled peptides and extend plasma half-life. Each radiolabeled peptide was allowed to freely circulate within the animal for the described time period before the animals were euthanized and sectioned.
Whole body autoradiography (WBA) sagittal sectioning was performed as follows. […] Sections were allowed to desiccate in a freezer prior to imaging.
For the autoradiography imaging, tape mounted thin sections were freeze dried and radioactive samples were exposed to phophoimager plates for 7 days.

The next data set addresses pepsin (Homo sapiens, UniProt P0DJD8). The data set can be described thus: Peptide resistance to pepsin digestion / simulated gastric fluid (RP-HPLC). The class given is in vitro ADME. As to conditions: 12.5 ug peptide, 20 ug pepsin, SGF pH 1.05, 30 minutes at 37.5 C. On the procedure:
SEQ ID NO: 24 peptide and SEQ ID NO: 111 peptide were suspended in 500 μl of ddH2O at a stock concentration of 2 mg/ml. Reactions were prepared with 12.5 μg peptide and 20 μg pepsin in simulated gastric fluid (pH 1.05) and incubated for 30 minutes at 37.5° C. Reactions were quenched with a final concentration of 100 mM Tris base and 10 mM dithiothreitol (DTT). Reversed phase HPLC (RP-HPLC) was run on samples using an Agilent 1260 HPLC equipped with a C-18 Poroshell 120B column. Sample were analyzed by a gradient method with a mobile phase of Solvent A (water with 0.1% TFA) and Solvent B (acetonitrile with 0.1% TFA). Solvent B was ramped up from 5%-45% of the mobile phase over a period of 10 minutes. Peptides were detected at an absorbance of 214 nm and 280 nm.

Data set [2] in a line: Peptide resistance to reducing agents (10 mM DTT, RP-HPLC). Conditions: 10 mM DTT in PBS, room temperature, 30 minutes. The class given is physicochemical. The method, then: Several peptides were suspended in 500 μl of ddH2O to a stock concentration of 2 mg/ml. Reactions were prepared by adding 12.5 μg peptide from the stock solution to a 10 mM solution of DTT in PBS and allowed to incubate at room temperature for 30 minutes. RP-HPLC was run on samples using an Agilent 1260 HPLC equipped with a C-18 Poroshell 120B column. Samples were analyzed by a gradient method with a mobile phase of Solvent A (water with 0.1% TFA) and Solvent B (acetonitrile with 0.1% TFA). Solvent B was ramped up from 5%-45% of the mobile phase over a period of 10 minutes.
Peptides were fractionated by HPLC and without any further sample prep, 5 μl of the sample was injected into the mass spectrometer at 1 mg/ml using a CTCPAL® autosampler. Alternatively, if peptides were provided as a lyophilized powder, the sample was dissolved in 100% water to a concentration of 1 mg/ml a Millipore Ziptip C18® column was used to desalt the peptides prior to injection for ES-MS. The mass spectrometer was calibrated using 5 pmol of mixture of five standard peptides to achieve a high accuracy of mass determination with less than a 10 ppm error. Confirmation of peptide disulfide bond formation was achieved by analyzing the m/z isotopic distribution and the exact charge. All peptides tested are shown under reducing and non-reducing conditions.

Data set [3] in a line: Intravenous and oral administration of radiolabeled peptide: plasma, urine, feces. The class given is in vivo, female Harlan athymic nude mice. On the procedure: This example describes intravenous and oral administration of peptides of this disclosure, including transit of the intact peptide through the GI tract and to the feces after oral administration. A radiolabeled peptide of SEQ ID NO: 24 was administered intravenously or orally to female Harlan athymic nude mice, 6-8 weeks of age. Radiolabeled peptides of SEQ ID NO: 24 was administered intravenously (IV) at a dose of 4.8 μCi/20 nmol. Radiolabeled peptide of SEQ ID NO: 24 was administered orally (PO) at a dose of 24 μCi/100 nmol. Mice were euthanized at various time points by CO2 asphyxiation and biological fluids were collected, including blood, urine, and feces. Urine was collected be abdominal palpitation immediately before CO2 asphyxiation. Blood was collected by cardiac puncture immediately after CO2 asphyxiation and centrifuged to separate plasma. Feces was collected either before or after CO2 asphyxiation by palpitation of the colon. Samples were analyzed by HPLC to quantify the concentration or dose of intact peptide recovered in plasma, urine, and feces. For HPLC analysis, urine samples were first diluted at a 1:20 ratio in water and plasma samples were diluted at a 1:5 ratio in water. Feces samples were dissolved in Tris buffer, centrifuged to remove the insoluble fraction, and supernatants were diluted at a 1:1 ratio in water.
The delivered dose of ^14C was 4.8 for intravenous administration and 24 μCi for oral administration. Time points examined included 0.08, 0.5, 1, 3, 8, 24, 48 hours and three mice were examined per time point. […] The delivered dose of ^14C was 4.8 for intravenous administration and 24 μCi for oral administration. Time points examined included 0.08, 0.5, 1, 3, 8, 24, 48 hours and three mice were examined per time point. […] The delivered dose of ^14C was 24 μCi for oral administration. Time points examined included 0.5, 1, and 3 hours. […] The intact peptide was eluted near 6 minutes, whereas cleaved fragments—such as the N-terminal Gly residue—were eluted near 1 minute.
The delivered dose of ^14C was 4.8 μCi for intravenous administration and 24 μCi for oral administration. Time points examined included 0.08, 0.5, 1, 3, 8, 24, 48 hours and three mice were examined per time point. […] The delivered dose of ^14C was 24 μCi for oral administration. Time points examined included 0.5, 1, 3, 8, 24, and 48 hours.
The delivered dose of ^14C was 4.8 μCi for intravenous administration and 24 μCi for oral administration. Time points examined included 0.08, 0.5, 1, 3, 8, 24, 48 hours and three mice were examined per time point. […] The delivered dose of ^14C was 24 μCi for oral administration. Time points examined included 3 and 8 hours.

The next data set has as its system cartilage. Conditions: 3 hours, ligated kidneys.
The next data set relates to pepsin, trypsin. The data set can be described thus: HPLC after exposure to oxidative, reductive, acidic conditions and proteinases (FIG. 72). In kind it is in vitro ADME. As to conditions: pH 1 / SGF pH 1.05, 10 mM DTT, 500 U pepsin, 50 U trypsin. The method, then: FIG. 72 illustrates HPLC chromatograms of peptides of SEQ ID NO: 111 and SEQ ID NO: 434 after exposure to a range of conditions including oxidative, reductive, and acidic conditions as well as after exposure to proteinases. FIG. 72A illustrates the HPLC trace of a peptide of SEQ ID NO: 111 under reducing and acidic conditions. FIG. 72B illustrates the HPLC trace of a peptide of SEQ ID NO: 111 under various combinations of reducing agents and proteases including 10 mM DTT in 500 U pepsin, 500 U pepsin, 10 mM DTT in 50 U trypsin, and 50 U trypsin. FIG. 72C illustrates the HPLC trace of a peptide of SEQ ID NO: 434 under various protease conditions including in 500 U pepsin, in 50 U trypsin, non-reducing (NR, oxidized conditions) in simulated gastric fluid (SGF) at pH 1.05, and NR.
FIG. 72 illustrates HPLC chromatograms of peptides of SEQ ID NO: 111 and SEQ ID NO: 434 after exposure to a range of conditions including oxidative, reductive, and acidic conditions as well as after exposure to proteinases. The peptide of SEQ ID NO: 434 is a linearized version of the knottin peptide of SEQ ID NO: 111. The peptide of SEQ ID NO: 434 has the same amino acid sequence as the knottin peptide of SEQ ID NO: 111, but with all cysteines mutated to serines. FIG. 72A illustrates the HPLC trace of a peptide of SEQ ID NO: 111 under reducing and acidic conditions. […]

The mark [4] stands for this setting: 3 hours after 100 nmol radiolabeled peptide.
Where [5] appears, read: 24 hours after 100 nmol radiolabeled peptide.
Where [6] appears, read: 0.08 hours after 100 nmol radiolabeled peptide.
Setting [7] is: 0.5 hours after 100 nmol radiolabeled peptide.
Setting [8] is: 1 hour after 100 nmol radiolabeled peptide.
[9] abbreviates: 8 hours after 100 nmol radiolabeled peptide.
Setting [10] is: 48 hours after 100 nmol radiolabeled peptide.

pepsin, sequence (P0DJD8 63-388): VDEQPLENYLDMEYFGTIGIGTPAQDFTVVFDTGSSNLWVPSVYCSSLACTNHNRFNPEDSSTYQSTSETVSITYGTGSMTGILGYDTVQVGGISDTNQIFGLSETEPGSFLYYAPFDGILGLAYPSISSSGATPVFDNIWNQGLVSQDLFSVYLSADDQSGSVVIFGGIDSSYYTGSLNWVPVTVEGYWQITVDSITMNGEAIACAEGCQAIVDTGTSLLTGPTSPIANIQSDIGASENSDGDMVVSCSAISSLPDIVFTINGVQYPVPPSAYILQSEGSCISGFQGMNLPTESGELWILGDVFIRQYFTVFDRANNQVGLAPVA

Consider “GSGVPINVKCRGSRDCLDPCKKAGMRFGKCINSKCHCTP [SEQ ID NO: 24]”, for which the “Signal in IVD as a percentage of the blood” value is on record as 1779% in data set [1] (setting [4]) and 833% in data set [1] (setting [5]). Moreover, the “Resistance to degradation in DTT, SGF, SGF and pepsin, SPTD solutions” value with pepsin was “highly resistant to degradation”. In addition, in data set [2], the “HPLC peaks under non-reducing versus reducing conditions (resistance to reduction by DTT)” value is “Peaks showing the peptide under non-reducing conditions and reducing conditions are overlapping”. In data set [3] (IV 20 nmol / PO 100 nmol), the “Detection of radioactive signal from the dosed peptide in plasma” value is recorded as “at least 50 hours”. Besides, the “Plasma concentration as percent of the dose” value is on record as “up to 10 % of the dose” in data set [3] (IV administration, 20 nmol) and “up to 1 % of the dose” in data set [3] (PO administration, 100 nmol). Further, in data set [3] (oral dosing 100 nmol, 3 and 8 hours), the “Intact peptide in feces” value is “detected in feces after oral dosing”. Besides, in data set [3] (oral gavage 100 nmol, 0.5, 1, 3 hours), the “Nature of radioactivity detected in plasma (HPLC / scintillation)” value is “nearly some of all of the radioactivity detected in plasma was due to fragments of the administered peptide”. In the data set on cartilage, the “Cartilage types reached (FIGS. 3-4)” value was “homing of SEQ ID NO: 24 to hyaline cartilage such as articular cartilage and physeal cartilage, as well as fibrocartilage”.

Regarding “GSGVPINVRCRGSRDCLDPCRRAGMRFGRCINSRCHCTP [SEQ ID NO: 111]”, the “Time at which the signal to background ratio in IVD peaked” value in data set [1] (100 nmol) was found to be 24 h. The “Time at which the signal to background ratio in knee joints peaked” value in data set [1] (100 nmol) was 8 h. Moreover, in data set [1] (100 nmol, 5 minutes-48 hours), the “Presence of radiolabeled peptide in IVD and synovial joints” value was “observed in the intervertebral disc (IVD) and synovial joints at all time points (5 minutes-48 hours)”. Also, the “Signal in IVD as a percentage of the blood” value in data set [1] (setting [6]) was found to be 164%; in data set [1] (setting [7]) it was 369%; in data set [1] (setting [8]), 961%; in data set [1] (setting [4]) it was 3213%; in data set [1] (setting [9]), 3777%; in data set [1] (setting [5]), 5391%. Also, the “Signal in IVD as a percentage of the blood” value in data set [1] (setting [10]) amounted to 3320%. Besides, the “Signal in knee joints as a percentage of the blood” value in data set [1] (setting [6]) turned out to be 404%; in data set [1] (setting [7]), 510%; in data set [1] (setting [8]), 1114%; in data set [1] (setting [4]), 4059%; in data set [1] (setting [9]), 4990%; in data set [1] (setting [5]), 2137%. Besides, in data set [1] (setting [10]), the “Signal in knee joints as a percentage of the blood” value was determined as 843%. In addition, in data set [1] (IVD, 3 hours), the “Signal of folded knotted peptide compared to linearized peptide of SEQ ID NO: 434” value is roughly 20 fold. Further, at pepsin, the “Resistance to degradation in DTT, SGF, SGF and pepsin, SPTD solutions” value is reported as “similarly highly resistant in the various conditions tested”. The “HPLC peaks under non-reducing versus reducing conditions (resistance to reduction by DTT)” value in data set [2] was “Peaks showing the peptide under non-reducing conditions and reducing conditions are fully overlapping”. The “Resistance to degradation (FIG. 72)” value with pepsin, trypsin is “highly resistant to degradation at pH 1, reducing agents, trypsin, and pepsin”.

Turning to “GSGVPINVRSRGSRDSLDPSRRAGMRGRSINSRSHSTP [SEQ ID NO: 434, reference compound]”, the “Cartilage homing (qualitative, WBA)” value in data set [1] (100 nmol radiolabeled peptide) is “homed to cartilage to a much lesser extent than the folded knotted peptide”. For the same sequence, the “Signal in IVD as a percentage of signal in blood” value in data set [1] (3 hr Intact Kidneys, 100 nmol) is listed as 177%; in data set [1] (3 hr Ligated Kidneys, 100 nmol) it was 117%; in data set [1] (24 hr Intact Kidneys, 100 nmol), 104%. Also, in the data set with pepsin, trypsin, the “Resistance to degradation (FIG. 72)” value is “more susceptible to degradation at these different conditions”.

As to “GSQKILSNRCNNSSECIPHCIRIFGTRAAKCINRKCYCYP [SEQ ID NO: 196]”, the “HPLC peaks under non-reducing versus reducing conditions (resistance to reduction by DTT)” value in data set [2] was “Peaks showing the peptide under non-reducing conditions and reducing conditions are overlapping”.
